# In ChEMBL document CHEMBL4725219, “Identification and in silico prediction of metabolites of tebufenozide derivatives by major human cytochrome P450 isoforms” (Bioorg Med Chem, 2020):
# Key:
# Cytochrome P450 2D6 = Cytochrome P450 2D6 (Homo sapiens, UniProt P10635); assay: Drug metabolism in microsomes containing baculovirus expressing human CYP2D6 assessed as CYP2D6-mediated hydroxylation at methyl group of A-ring by LC/MS/MS analysis relative to control; format: ADME, Microsome
# Cytochrome P450 3A4 [1] = molecular target: T1, Cytochrome P450 3A4 (Homo sapiens, UniProt P08684); assay: Drug metabolism in recombinant Saccharomyces cerevisiae AH22 cells expressing human CYP3A4 assessed as CYP3A4-mediated hydroxylation at t-butyl group by measuring retention time of the metabolite at 39 uM incubated for 24 hrs by HPLC analysis; format: ADME; settings: recombinant enzyme
# T1 sequence (P08684 whole entry): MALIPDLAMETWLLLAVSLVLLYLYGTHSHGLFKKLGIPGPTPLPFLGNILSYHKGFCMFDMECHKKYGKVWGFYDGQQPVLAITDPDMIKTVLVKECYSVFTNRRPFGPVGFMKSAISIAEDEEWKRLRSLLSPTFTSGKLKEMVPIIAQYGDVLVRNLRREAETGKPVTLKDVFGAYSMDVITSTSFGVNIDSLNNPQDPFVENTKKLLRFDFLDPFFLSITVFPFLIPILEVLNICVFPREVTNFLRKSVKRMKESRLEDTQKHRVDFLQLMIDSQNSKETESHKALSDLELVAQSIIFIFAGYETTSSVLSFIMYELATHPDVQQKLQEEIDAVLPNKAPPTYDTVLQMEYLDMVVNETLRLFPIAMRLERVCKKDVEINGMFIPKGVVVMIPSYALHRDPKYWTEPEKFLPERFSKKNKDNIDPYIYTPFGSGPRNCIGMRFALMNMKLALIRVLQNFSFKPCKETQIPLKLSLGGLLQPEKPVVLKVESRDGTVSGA
# Cytochrome P450 1A2 = molecular target: T2, Cytochrome P450 1A2 (Homo sapiens, UniProt P05177); assay: Drug metabolism in microsomes containing baculovirus expressing human CYP1A2 assessed as CYP1A2-mediated hydroxylation by LC/MS/MS analysis; format: ADME, Microsome
# T2 sequence (P05177 whole entry): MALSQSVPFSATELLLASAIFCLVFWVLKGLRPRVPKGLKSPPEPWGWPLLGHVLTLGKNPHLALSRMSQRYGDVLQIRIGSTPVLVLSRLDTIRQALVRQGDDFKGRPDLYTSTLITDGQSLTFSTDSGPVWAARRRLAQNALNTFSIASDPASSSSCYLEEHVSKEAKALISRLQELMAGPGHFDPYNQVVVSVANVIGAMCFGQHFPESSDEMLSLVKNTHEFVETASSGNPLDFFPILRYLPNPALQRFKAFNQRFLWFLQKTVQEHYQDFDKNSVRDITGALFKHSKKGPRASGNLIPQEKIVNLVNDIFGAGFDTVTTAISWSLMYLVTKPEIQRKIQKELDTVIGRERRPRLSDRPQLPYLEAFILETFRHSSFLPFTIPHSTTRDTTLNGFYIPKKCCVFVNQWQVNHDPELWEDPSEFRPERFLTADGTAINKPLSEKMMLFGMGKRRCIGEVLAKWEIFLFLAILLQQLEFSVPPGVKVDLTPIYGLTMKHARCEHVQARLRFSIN
# Cytochrome P450 2C9 = Cytochrome P450 2C9 (Homo sapiens, UniProt P11712); assay: Drug metabolism in microsomes containing baculovirus expressing human CYP2C9 assessed as CYP2C9-mediated hydroxylation at methyl group of A-ring by LC/MS/MS analysis relative to control; format: ADME, Microsome
# Cytochrome P450 2C9, sequence (P11712 whole entry): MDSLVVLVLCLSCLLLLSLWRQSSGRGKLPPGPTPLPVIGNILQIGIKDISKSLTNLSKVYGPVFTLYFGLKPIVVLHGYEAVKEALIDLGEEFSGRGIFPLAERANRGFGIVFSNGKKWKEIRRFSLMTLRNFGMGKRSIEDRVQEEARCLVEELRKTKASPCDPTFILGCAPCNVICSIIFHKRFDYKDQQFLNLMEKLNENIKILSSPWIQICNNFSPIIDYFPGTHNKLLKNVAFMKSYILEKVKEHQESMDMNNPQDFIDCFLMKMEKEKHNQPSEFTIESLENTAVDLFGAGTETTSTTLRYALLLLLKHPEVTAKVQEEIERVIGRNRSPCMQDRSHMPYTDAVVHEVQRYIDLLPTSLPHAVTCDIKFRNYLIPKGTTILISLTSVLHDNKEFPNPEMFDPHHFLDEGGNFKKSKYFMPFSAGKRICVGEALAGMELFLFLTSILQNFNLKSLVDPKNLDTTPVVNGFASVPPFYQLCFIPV
# Cytochrome P450 3A4 [2] = molecular target: T1, Cytochrome P450 3A4; assay: Drug metabolism in recombinant Saccharomyces cerevisiae AH22 cells expressing human CYP3A4 assessed as CYP3A4-mediated hydroxylation at methyl group of A-ring by measuring retention time of the metabolite at 39 uM incubated for 24 hrs by HPLC analysis; format: ADME; settings: recombinant enzyme
# Cytochrome P450 3A4 [3] = molecular target: T1, Cytochrome P450 3A4; assay: Drug metabolism in recombinant Saccharomyces cerevisiae AH22 cells expressing human CYP3A4 assessed as CYP3A4-mediated hydroxylation at methyl group of B-ring by measuring retention time of the metabolite at 39 uM incubated for 24 hrs by HPLC analysis; format: ADME; settings: recombinant enzyme
# [4] = Drug metabolism in recombinant Saccharomyces cerevisiae AH22 cells expressing human CYP3A4/CYP2C9 assessed as CYP-mediated hydroxylation at CH3-isopropyl group of B ring by measuring retention time of the metabolite at 100 uM incubated for 24 hrs by HPLC analysis; format: ADME
# [5] = Drug metabolism in recombinant Saccharomyces cerevisiae AH22 cells expressing human CYP3A4/CYP2C9 assessed as CYP-mediated hydroxylation at methyl group of A-ring by measuring retention time of the metabolite at 100 uM incubated for 24 hrs by HPLC analysis; format: ADME
# [6] = Drug metabolism in recombinant Saccharomyces cerevisiae AH22 cells expressing human CYP3A4/CYP2C9 assessed as CYP-mediated hydroxylation at CH-isopropyl group of B-ring by measuring retention time of the metabolite at 100 uM incubated for 24 hrs by HPLC analysis; format: ADME
# Cytochrome P450 2D6, sequence (P10635 whole entry): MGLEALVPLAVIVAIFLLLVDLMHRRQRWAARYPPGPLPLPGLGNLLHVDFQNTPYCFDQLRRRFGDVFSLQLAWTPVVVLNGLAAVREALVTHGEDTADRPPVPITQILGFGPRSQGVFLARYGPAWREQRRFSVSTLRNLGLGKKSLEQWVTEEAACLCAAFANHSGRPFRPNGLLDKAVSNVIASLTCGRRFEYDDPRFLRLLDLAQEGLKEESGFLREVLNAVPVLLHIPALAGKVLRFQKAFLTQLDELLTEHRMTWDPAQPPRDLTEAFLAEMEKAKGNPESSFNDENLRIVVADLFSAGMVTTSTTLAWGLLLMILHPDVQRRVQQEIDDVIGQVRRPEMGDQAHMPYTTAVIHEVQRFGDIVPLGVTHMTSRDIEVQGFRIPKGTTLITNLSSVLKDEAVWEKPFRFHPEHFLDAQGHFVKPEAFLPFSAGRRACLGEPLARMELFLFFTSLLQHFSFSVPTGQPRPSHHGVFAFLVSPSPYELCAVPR
Drug metabolism (Cytochrome P450 2D6),Retention_time (Cytochrome P450 3A4 [1]),Drug metabolism (Cytochrome P450 1A2),Drug metabolism (Cytochrome P450 2C9),Retention_time (Cytochrome P450 3A4 [2]),Retention_time (Cytochrome P450 3A4 [3]),Retention_time [4],Retention_time [5],Retention_time [6],Compound
Metabolite_Detected,16.1 min,Metabolite_Notdetected,Metabolite_Detected,17.4 min,16.1 min,,,,Cc1cccc(C(=O)NN(C(=O)c2cc(C)cc(C)c2)C(C)(C)C)c1
,,Metabolite_Notdetected,,,,,,,Cc1cc(C)cc(C(=O)N(NC(=O)c2ccccc2C)C(C)(C)C)c1
,,Metabolite_Notdetected,,,,12 min,17.7 min,13.9 min,Cc1cc(C)cc(C(=O)N(NC(=O)c2ccc(C(C)C)cc2)C(C)(C)C)c1
